Reference: PubChem BioAssay (NCI)
Where “and” joins values, the source holds several entries; their conditions need not be identical. Equal values may be shown once.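 These data come from cells grown in 96-well plates and exposed to compound for 48 hours at five concentrations. Abbreviation: GI50, concentration required for 50% inhibition of growth. TGI marks complete inhibition of growth.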

What was measured:
Experiment in all cases: growth of human tumour cells (NCI), 48 h
UO-31 renal = system: UO-31 renal
HCC-2998 colon = system: HCC-2998 colon
NCI/ADR-RES ovarian = system: NCI/ADR-RES ovarian
SN12C renal = system: SN12C renal
OVCAR-5 ovarian = system: OVCAR-5 ovarian
HL-60(TB) leukemia = system: HL-60(TB) leukemia
HT29 colon = system: HT29 colon
COLO 205 colon = system: COLO 205 colon
SK-MEL-2 melanoma = system: SK-MEL-2 melanoma
HS 578T breast = system: HS 578T breast

c1ccc(C(=NNc2nc3ccccc3o2)c2ccccn2)nc1
GI50 (UO-31 renal): 0.0427 µM
TGI (UO-31 renal): 1.18 µM and 3.03 µM
GI50 (HCC-2998 colon): 0.0972 µM
TGI (HCC-2998 colon): 18.4 µM and 1.96 µM
GI50 (NCI/ADR-RES ovarian): 0.0386 µM
GI50 (SN12C renal): 0.0856 µM
TGI (SN12C renal): > 71.7 µM
GI50 (OVCAR-5 ovarian): 0.0847 µM
GI50 (HL-60(TB) leukemia): 0.0323 µM
TGI (HL-60(TB) leukemia): 0.289 µM and 1.14 µM
GI50 (HT29 colon): < 0.0361 µM
TGI (HT29 colon): > 66.8 µM and 12.7 µM
GI50 (COLO 205 colon): 0.0194 µM
TGI (COLO 205 colon): 14.4 µM
GI50 (SK-MEL-2 melanoma): 0.465 µM
TGI (SK-MEL-2 melanoma): 28.8 µM and 27.1 µM
GI50 (HS 578T breast): 1.01 µM
TGI (HS 578T breast): > 81.9 µM and 55.5 µM

CCC1=C[C@@H]2CN(C1)Cc1c([nH]c3ccccc13)[C@@](C(=O)OC)(c1cc3c(cc1OC)N(C=O)[C@H]1[C@@](O)(C(=O)OC)[C@H](OC(C)=O)[C@]4(CC)[C@@H]5C[C@@H]5CN5CC[C@]31[C@@H]54)C2
GI50 (UO-31 renal): 0.173 µM
TGI (UO-31 renal): > 6.25 µM
GI50 (HCC-2998 colon): 0.00144 µM
TGI (HCC-2998 colon): > 6.25 µM
GI50 (NCI/ADR-RES ovarian): 0.632 µM
TGI (NCI/ADR-RES ovarian): > 6.25 µM
GI50 (SN12C renal): 0.0228 µM
TGI (SN12C renal): > 6.25 µM
GI50 (OVCAR-5 ovarian): 0.00255 µM
TGI (OVCAR-5 ovarian): > 6.25 µM
GI50 (HL-60(TB) leukemia): < 0.000625 µM
TGI (HL-60(TB) leukemia): < 0.000625 µM
GI50 (HT29 colon): < 0.000625 µM
TGI (HT29 colon): > 6.25 µM
GI50 (COLO 205 colon): < 0.000625 µM
TGI (COLO 205 colon): 0.00122 µM
GI50 (SK-MEL-2 melanoma): < 0.000625 µM
TGI (SK-MEL-2 melanoma): > 6.25 µM
GI50 (HS 578T breast): 0.00181 µM
TGI (HS 578T breast): > 6.25 µM

C/C=C(\C)C(=O)N[C@H]1[C@@H](OC(C)=O)C[C@]2(C)C3CC[C@@]4(C)C(CC[C@@H]4C(C)N(C)C)C3CCC2[C@H]1O (stereo partly drawn)
GI50 (UO-31 renal): 3.16 µM
TGI (UO-31 renal): 15.2 µM
GI50 (HCC-2998 colon): 7.15 µM
TGI (HCC-2998 colon): 21.7 µM
GI50 (NCI/ADR-RES ovarian): 9.79 µM
TGI (NCI/ADR-RES ovarian): 30.3 µM
GI50 (SN12C renal): 5.55 µM
TGI (SN12C renal): 19.6 µM
GI50 (OVCAR-5 ovarian): 13.8 µM
TGI (OVCAR-5 ovarian): 28.2 µM
GI50 (HL-60(TB) leukemia): 4.53 µM
TGI (HL-60(TB) leukemia): 13.6 µM
GI50 (HT29 colon): 0.738 µM
TGI (HT29 colon): 6.55 µM
GI50 (COLO 205 colon): 2.15 µM
TGI (COLO 205 colon): 5.91 µM
GI50 (SK-MEL-2 melanoma): 2.3 µM
TGI (SK-MEL-2 melanoma): 6.38 µM
GI50 (HS 578T breast): 12.4 µM
TGI (HS 578T breast): 43.1 µM

N=C1c2nc3n(c2C(=O)c2nc4n(c21)CCCC4)CCCC3
GI50 (UO-31 renal): 4.03 µM
TGI (UO-31 renal): 28.6 µM
GI50 (HCC-2998 colon): 3.74 µM
TGI (HCC-2998 colon): 12.8 µM
GI50 (NCI/ADR-RES ovarian): 35.6 µM
TGI (NCI/ADR-RES ovarian): > 100 µM
GI50 (SN12C renal): 1.58 µM
TGI (SN12C renal): 3.12 µM
GI50 (OVCAR-5 ovarian): 2.28 µM
TGI (OVCAR-5 ovarian): 4.89 µM
GI50 (HL-60(TB) leukemia): 31 µM
TGI (HL-60(TB) leukemia): > 84.3 µM
GI50 (HT29 colon): 2.56 µM
TGI (HT29 colon): 5.51 µM
GI50 (COLO 205 colon): 1.83 µM
TGI (COLO 205 colon): 3.39 µM
GI50 (SK-MEL-2 melanoma): 23.4 µM
TGI (SK-MEL-2 melanoma): > 65 µM
GI50 (HS 578T breast): 2.18 µM
TGI (HS 578T breast): 6.68 µM

CCOC(=O)CCCn1c(SC)nc2cc(-c3ccco3)[nH]c2c1=O
GI50 (UO-31 renal): 72.6 µM
TGI (UO-31 renal): > 100 µM
GI50 (HCC-2998 colon): > 100 µM
TGI (HCC-2998 colon): > 100 µM
GI50 (NCI/ADR-RES ovarian): 72.9 µM
TGI (NCI/ADR-RES ovarian): > 100 µM
GI50 (SN12C renal): 81.8 µM
TGI (SN12C renal): > 100 µM
GI50 (OVCAR-5 ovarian): > 100 µM
TGI (OVCAR-5 ovarian): > 100 µM
GI50 (HL-60(TB) leukemia): > 100 µM
TGI (HL-60(TB) leukemia): > 100 µM
GI50 (HT29 colon): > 100 µM
TGI (HT29 colon): > 100 µM
GI50 (COLO 205 colon): > 100 µM
TGI (COLO 205 colon): > 100 µM
GI50 (SK-MEL-2 melanoma): 36.4 µM
TGI (SK-MEL-2 melanoma): > 100 µM
GI50 (HS 578T breast): 25.6 µM
TGI (HS 578T breast): > 100 µM

COc1cc(NC(=O)c2cc(OC)c3ccn(C)c3c2)cc2c1C[C@]1(C)CC[C@@H](O)C(C)(C)[C@H]1O2
GI50 (UO-31 renal): 2.46 µM
TGI (UO-31 renal): 5.78 µM
GI50 (HCC-2998 colon): 13.4 µM
TGI (HCC-2998 colon): > 100 µM
GI50 (NCI/ADR-RES ovarian): 29.3 µM
TGI (NCI/ADR-RES ovarian): > 100 µM
GI50 (SN12C renal): 27.9 µM
TGI (SN12C renal): > 100 µM
GI50 (OVCAR-5 ovarian): 27.3 µM
TGI (OVCAR-5 ovarian): > 100 µM
GI50 (HL-60(TB) leukemia): 3.49 µM
TGI (HL-60(TB) leukemia): 14.7 µM
GI50 (HT29 colon): 7.24 µM
TGI (HT29 colon): > 100 µM
GI50 (COLO 205 colon): 6.12 µM
TGI (COLO 205 colon): 51.5 µM
GI50 (SK-MEL-2 melanoma): 6.1 µM
TGI (SK-MEL-2 melanoma): 64.6 µM
GI50 (HS 578T breast): 2.33 µM
TGI (HS 578T breast): 9.34 µM
